Data from the supplement of paper PMC10307832.

Key:
Assay in all cases: relative viability (nuclei count vs DMSO), 5 days (fraction); higher = more cells survive
FG-4592 + OSI-027 = compound: Cc1nc(C(=O)NCC(=O)O)c(O)c2ccc(Oc3ccccc3)cc12 [FG-4592] + COc1cccc2cc(-c3nc([C@H]4CC[C@H](C(=O)O)CC4)n4ncnc(N)c34)[nH]c12 [OSI-027] (partner 0.5 µM)
In short: (§1)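 Lung cancer cell lines in 1536-well plates got either a single drug or a fixed anchor-drug dose together with five library-drug doses (not always all listed) in √10 steps, by pin tool, on the day after seeding. Nuclei were counted after 5 days, and relative viability is the treated-to-vehicle ratio of nuclei counts. Values are medians of duplicate plates.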

FG-4592 + Vorinostat = compound: Cc1nc(C(=O)NCC(=O)O)c(O)c2ccc(Oc3ccccc3)cc12 [FG-4592] + O=C(CCCCCCC(=O)Nc1ccccc1)NO [Vorinostat] (partner 1 µM)
In short: as §1

FG-4592 + Linsitinib = compound: Cc1nc(C(=O)NCC(=O)O)c(O)c2ccc(Oc3ccccc3)cc12 [FG-4592] + C[C@]1(O)C[C@@H](c2nc(-c3ccc4ccc(-c5ccccc5)nc4c3)c3c(N)nccn32)C1 [Linsitinib] (partner 1 µM)
In short: as §1

FG-4592 + Alpelisib = compound: Cc1nc(C(=O)NCC(=O)O)c(O)c2ccc(Oc3ccccc3)cc12 [FG-4592] + Cc1nc(NC(=O)N2CCC[C@H]2C(N)=O)sc1-c1ccnc(C(C)(C)C(F)(F)F)c1 [Alpelisib] (partner 2 µM)
In short: as §1

Cell Line	relative viability (FG-4592 + OSI-027; first compound 0.08 µM)	relative viability (FG-4592 + OSI-027; first compound 0.253 µM)	relative viability (FG-4592 + OSI-027; first compound 0.8 µM)	relative viability (FG-4592 + OSI-027; first compound 2.53 µM)	relative viability (FG-4592 + OSI-027; first compound 8 µM)	relative viability (FG-4592 + Vorinostat; first compound 0.08 µM)	relative viability (FG-4592 + Vorinostat; first compound 0.253 µM)	relative viability (FG-4592 + Vorinostat; first compound 0.8 µM)	relative viability (FG-4592 + Vorinostat; first compound 2.53 µM)	relative viability (FG-4592 + Vorinostat; first compound 8 µM)	relative viability (FG-4592 + Linsitinib; first compound 0.08 µM)	relative viability (FG-4592 + Linsitinib; first compound 0.253 µM)	relative viability (FG-4592 + Linsitinib; first compound 0.8 µM)	relative viability (FG-4592 + Linsitinib; first compound 2.53 µM)	relative viability (FG-4592 + Linsitinib; first compound 8 µM)	relative viability (FG-4592 + Alpelisib; first compound 0.08 µM)	relative viability (FG-4592 + Alpelisib; first compound 0.253 µM)	relative viability (FG-4592 + Alpelisib; first compound 0.8 µM)	relative viability (FG-4592 + Alpelisib; first compound 2.53 µM)	relative viability (FG-4592 + Alpelisib; first compound 8 µM)
LOU-NH91	0.722	0.399	0.753	0.666	0.687	0.993	0.86	0.817	0.866	0.95	0.92	0.83	0.755	0.938	0.907	0.698	0.614	0.613	0.719	0.724
NCI-H3122	1	0.899	0.889	0.768	0.563	0.997	0.906	0.975	0.975	0.592	0.95	1.03	1.07	1.02	0.816	0.861	0.764	0.665	0.781	0.733
HCC-827	0.677	0.727	0.8	0.669	0.593	0.85	0.823	0.927	0.842	0.81	1.02	0.895	0.984	0.975	0.945	0.948	0.945	0.952	0.951	0.992
SK-LU-1	0.3	0.177	0.349	0.345	0.239	0.862	0.505	0.799	0.845	0.811	1.02	0.89	0.971	–	0.928	1.02	0.925	1.07	–	0.917
NCI-H1975	0.693	0.605	0.75	0.652	0.614	0.723	0.644	0.748	0.767	0.653	1.01	0.902	1.01	0.96	0.752	0.679	0.555	0.672	0.655	0.56
NCI-H1651	0.741	0.639	0.719	0.645	0.605	0.597	0.596	0.546	0.469	0.538	0.986	0.998	0.915	1.09	0.815	0.925	0.888	1.03	0.95	0.816
